Source: patent US20130296278A1, “Diazeniumdiolate Derivatives” (Merck Sharp & Dohme Corp., priority 2011, published 2013)

test: Rate of NO release (UV absorbance decay at 248 nm in pH 7.4 buffer); type: physicochemical; details: 0.25 mM diazeniumdiolate in 100 mM pH 7.4 phosphate buffer, 22° C., absorbance at 248 nm; t½=ln(2)/k
Procedure: Compounds of the invention were evaluated for the rate of NO release using the following protocol described below.
The method described by Maragos, C. M, et al. Med. Chem. 1991, 34, 3242-3247, was followed. A 100 mM solution of pH 7.4 buffer was prepared by dissolving 626 mg of NaH2PO4.H2O and 4155 mg of Na2HPO4.7H2O in 200 mL of water. The 0.01 M solution of the individual diazeniumdiolate was prepared by dissolving the sodium diazeniumdiolate in 0.01 M sodium hydroxide solution. All solutions used were kept at room temperature. The cuvette incubator was set at 22° C. 25 μL of the 0.01 M diazeniumdiolate solution was added to a cuvette, followed by dilution with 975 μL of pH 7.4 buffer to obtain a 0.25 (25 uL of 0.01 M diluted to 1000 ul will be 0.25 mM) mM solution. The cuvette was inserted into the UV spectrometer, and its absorbance at λ=248 nm was acquired every 3 seconds.
The general first-order rate equation is: […]
The method of Kezdy, F. J.; Jaz, J.; Bruylants, A. Bull. Soc. Chim. Belg. 1958, 67, 687-706, later elaborated by Schwartz, L. M.; Gelb, R. I. Anal. Chem. 1978, 50, 1592-1594, was used to analyze the data without measuring A∞. Two equations are obtained when the measurement At is made at t and At+Δt is made at t+Δt. Dividing these two equations and rearranging the resultant equation, we arrive at
At=At+Δte^−k!+A∞(1−e^kΔt)
Plotting At against At+Δt would yield a straight line with k=−ln(slope)/Δt, A∞=intercept/(1−slope). As a result, t½=ln(2)/k.

half-life at 0.25 mM | Compound
1.45 min | CCCN(/[N+]([O-])=N/[O-])C(C)(C)C.[Na+] [Example 1, Sodium 1-(N-tert-butyl-N-propylamino)diazen-1-ium-1,2-diolate]
3.17 min | C=CCN(/[N+]([O-])=N/[O-])C(C)(C)C.[Na+] [Example 2, Sodium 1-(N-text-butyl-N-allylamino)diazen-1-ium-1,2-diolate]
3.42 min | CC(C)(C)N(CCO)/[N+]([O-])=N/[O-].[Na+] [Example 3, Sodium 1-[N-tert-butyl-N-(2′-hydroxyethyl)amino]diazen-1-ium-1,2-diolate]
